Laboratory results reported in ChEMBL document CHEMBL3751729, “Benzamide derivatives and their constrained analogs as histamine H3 receptor antagonists” (Eur J Med Chem, 2016).
One block for each molecule: values may come before it.

Tests used:
[1] = target: T1, Histamine H3 receptor (Homo sapiens, UniProt Q9Y5N1); experiment: Displacement of [3H]R-alpha-methyl histamine from recombinant human H3 receptor
[2] = target: T1, Histamine H3 receptor; experiment: Antagonist activity at recombinant human H3 receptor expressed on CHO-K1 cells assessed as cAMP level by luciferase gene reporter assay; assay type: functional, cell-based
[3] = Metabolic stability in rat liver microsomes assessed as compound metabolized after 30 mins by LC-MS/MS analysis; assay type: ADME; details: read-out: Drug metabolism
[4] = target: T1, Histamine H3 receptor; experiment: Binding affinity to recombinant human H3 receptor
[5] = system: Rattus norvegicus; experiment: Half life in fasted Wistar rat at 5 mg/kg, iv by LC-MS/MS analysis; assay type: ADME, organism-based; details: in vivo
[6] = system: Rattus norvegicus; experiment: Oral bioavailability in fasted Wistar rat at 5 mg/kg by LC-MS/MS analysis; assay type: ADME, organism-based; details: in vivo
[7] = system: Rattus norvegicus; experiment: AUCt in fasted Wistar rat at 5 mg/kg, po by LC-MS/MS analysis; assay type: ADME, organism-based; details: in vivo
[8] = Cmax in fasted Wistar rat at 5 mg/kg, po by LC-MS/MS analysis; assay type: ADME, organism-based; set-up: dose 5 mg/kg, route oral; details: in vivo
[9] = Metabolic stability in human liver microsomes assessed as compound metabolized after 30 mins by LC-MS/MS analysis; assay type: ADME; details: read-out: Drug metabolism
[10] = target: T2, hERG (KCNH2) (Homo sapiens, UniProt Q12809); experiment: Inhibition of human ERG at 10 uM by scintillation counting method
[11] = target: Cytochrome P450 3A4 (Homo sapiens, UniProt P08684); experiment: Inhibition of human CYP3A4 after 2 mins by LC-MS/MS analysis; assay type: ADME
[12] = target: Cytochrome P450 2D6 (Homo sapiens, UniProt P10635); experiment: Inhibition of human CYP2D6 after 12 mins by LC-MS/MS analysis; assay type: ADME
[13] = target: T2, hERG (KCNH2); experiment: Inhibition of human ERG at 1 uM by scintillation counting method
[14] = Plasma concentration in Wistar rat at 30 mg/kg, po after 1 hr by LC-MS/MS analysis; assay type: ADME, organism-based
[15] = Plasma concentration in Wistar rat at 3 mg/kg, po after 1 hr by LC-MS/MS analysis; assay type: ADME, organism-based
[16] = Cmax in fasted Wistar rat at 3 mg/kg, po by LC-MS/MS analysis; assay type: ADME, organism-based; set-up: dose 3 mg/kg, route oral; details: in vivo
[17] = Ratio of drug level in brain to blood in Wistar rat at 10 mg/kg, po by LC-MS/MS analysis
[18] = Plasma concentration in Wistar rat at 10 mg/kg, po after 1 hr by LC-MS/MS analysis; assay type: ADME, organism-based
[19] = system: Rattus norvegicus; experiment: AUCt in fasted Wistar rat at 3 mg/kg, po by LC-MS/MS analysis; assay type: ADME, organism-based; details: in vivo
[20] = Drug uptake in Wistar rat brain at 3 mg/kg, po after 1 hr by LC-MS/MS analysis; assay type: ADME, organism-based; details: read-out: Drug uptake
[21] = system: Rattus norvegicus; experiment: Apparent volume of distribution in fasted Wistar rat at 3 mg/kg, iv by LC-MS/MS analysis; assay type: ADME, organism-based; details: in vivo
[22] = system: Rattus norvegicus; experiment: Oral bioavailability in fasted Wistar rat at 3 mg/kg by LC-MS/MS analysis; assay type: ADME, organism-based; details: in vivo
[23] = Drug uptake in Wistar rat brain at 30 mg/kg, po after 1 hr by LC-MS/MS analysis; assay type: ADME, organism-based; details: read-out: Drug uptake
[24] = system: Rattus norvegicus; experiment: In vivo receptor occupancy at histamine H3 receptor in po dosed Wistar rat by LC-MS/MS analysis; assay type: functional
[25] = Drug uptake in Wistar rat brain at 10 mg/kg, po after 1 hr by LC-MS/MS analysis; assay type: ADME, organism-based; details: read-out: Drug uptake

T2 sequence (Q12809 whole entry): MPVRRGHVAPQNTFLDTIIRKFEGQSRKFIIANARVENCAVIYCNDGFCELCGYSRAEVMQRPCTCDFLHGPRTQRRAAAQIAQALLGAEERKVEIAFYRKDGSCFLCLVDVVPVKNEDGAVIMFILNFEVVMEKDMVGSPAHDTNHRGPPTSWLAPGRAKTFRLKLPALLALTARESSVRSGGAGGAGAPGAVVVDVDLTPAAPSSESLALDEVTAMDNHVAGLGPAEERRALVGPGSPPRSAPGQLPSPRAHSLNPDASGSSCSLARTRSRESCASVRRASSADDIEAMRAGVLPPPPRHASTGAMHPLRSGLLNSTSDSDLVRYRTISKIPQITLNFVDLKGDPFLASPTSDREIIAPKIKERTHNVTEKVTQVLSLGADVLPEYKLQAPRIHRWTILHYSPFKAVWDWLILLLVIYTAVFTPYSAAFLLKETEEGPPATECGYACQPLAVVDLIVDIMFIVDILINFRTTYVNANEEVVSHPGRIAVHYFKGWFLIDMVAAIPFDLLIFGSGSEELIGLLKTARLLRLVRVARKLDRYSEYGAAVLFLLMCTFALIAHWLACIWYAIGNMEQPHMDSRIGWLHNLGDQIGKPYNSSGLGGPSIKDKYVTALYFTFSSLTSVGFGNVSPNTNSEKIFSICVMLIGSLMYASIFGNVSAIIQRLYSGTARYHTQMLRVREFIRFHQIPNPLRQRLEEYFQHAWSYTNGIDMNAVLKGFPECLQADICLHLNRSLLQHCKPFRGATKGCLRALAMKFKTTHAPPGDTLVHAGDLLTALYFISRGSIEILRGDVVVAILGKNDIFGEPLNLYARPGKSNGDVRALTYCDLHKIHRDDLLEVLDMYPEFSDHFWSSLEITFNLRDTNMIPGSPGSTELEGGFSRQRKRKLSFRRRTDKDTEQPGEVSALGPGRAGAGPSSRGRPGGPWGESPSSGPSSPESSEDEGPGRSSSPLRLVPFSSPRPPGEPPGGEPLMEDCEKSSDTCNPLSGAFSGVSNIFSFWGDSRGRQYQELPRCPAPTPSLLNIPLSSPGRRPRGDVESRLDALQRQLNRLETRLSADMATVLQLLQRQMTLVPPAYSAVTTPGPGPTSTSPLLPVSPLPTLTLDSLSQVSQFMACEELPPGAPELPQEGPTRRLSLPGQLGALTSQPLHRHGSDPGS
T1 sequence (Q9Y5N1 whole entry): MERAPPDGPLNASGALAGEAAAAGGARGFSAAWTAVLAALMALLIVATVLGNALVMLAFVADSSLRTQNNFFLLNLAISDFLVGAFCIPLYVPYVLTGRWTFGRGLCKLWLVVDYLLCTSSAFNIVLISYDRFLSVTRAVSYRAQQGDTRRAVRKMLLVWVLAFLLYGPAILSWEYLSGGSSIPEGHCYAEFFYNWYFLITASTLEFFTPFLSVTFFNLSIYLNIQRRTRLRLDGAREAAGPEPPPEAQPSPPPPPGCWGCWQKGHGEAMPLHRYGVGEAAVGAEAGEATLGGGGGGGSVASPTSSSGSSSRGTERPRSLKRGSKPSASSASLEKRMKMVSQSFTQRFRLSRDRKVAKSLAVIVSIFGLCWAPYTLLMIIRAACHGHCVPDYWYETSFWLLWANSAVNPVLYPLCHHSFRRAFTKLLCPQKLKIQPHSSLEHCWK
Chain of Cytochrome P450 3A4 (P08684 whole entry): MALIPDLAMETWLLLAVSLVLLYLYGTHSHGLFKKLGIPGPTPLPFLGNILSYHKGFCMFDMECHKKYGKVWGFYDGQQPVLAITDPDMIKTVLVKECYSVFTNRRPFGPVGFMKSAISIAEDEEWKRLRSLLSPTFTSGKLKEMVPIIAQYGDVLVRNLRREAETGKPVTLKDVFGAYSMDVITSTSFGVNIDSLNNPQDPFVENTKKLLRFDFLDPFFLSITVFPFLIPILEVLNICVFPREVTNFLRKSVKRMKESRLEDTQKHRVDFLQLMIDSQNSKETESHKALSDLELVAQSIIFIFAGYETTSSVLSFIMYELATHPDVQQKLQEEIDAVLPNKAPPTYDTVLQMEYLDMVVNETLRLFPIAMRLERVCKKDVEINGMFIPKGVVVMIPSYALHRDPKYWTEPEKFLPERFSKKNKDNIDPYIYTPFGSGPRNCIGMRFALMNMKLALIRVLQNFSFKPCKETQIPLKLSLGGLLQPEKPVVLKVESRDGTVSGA
Chain of Cytochrome P450 2D6 (P10635 whole entry): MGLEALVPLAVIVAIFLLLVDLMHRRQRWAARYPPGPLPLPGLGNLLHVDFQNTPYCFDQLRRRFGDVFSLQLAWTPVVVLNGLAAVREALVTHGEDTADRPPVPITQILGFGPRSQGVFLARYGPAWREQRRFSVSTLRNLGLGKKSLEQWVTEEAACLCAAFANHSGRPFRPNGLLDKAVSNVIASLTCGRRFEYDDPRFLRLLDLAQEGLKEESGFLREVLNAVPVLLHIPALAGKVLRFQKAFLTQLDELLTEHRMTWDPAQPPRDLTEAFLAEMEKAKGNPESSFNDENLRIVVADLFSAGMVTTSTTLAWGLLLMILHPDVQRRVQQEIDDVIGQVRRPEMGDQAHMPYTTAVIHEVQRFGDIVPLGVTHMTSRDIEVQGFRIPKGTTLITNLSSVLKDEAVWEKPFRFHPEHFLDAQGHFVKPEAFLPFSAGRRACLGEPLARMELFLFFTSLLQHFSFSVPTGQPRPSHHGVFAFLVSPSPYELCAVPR

Ki [1]: 2.1 nM
Structure (SMILES): CC(C)N1CCC(Oc2ccc3c(c2)CCN(C2CCN(C(C)C)C2)C3=O)CC1 (racemic)

IC50 [11]: > 30000 nM | IC50 [12]: > 30000 nM
Structure (SMILES): CC(C)N1CCC(NC(=O)c2ccc(OC3CCN(C4CCC4)CC3)cc2)C1 (stereo not drawn)

Ki [1]: 11.4 nM
Structure (SMILES): CC(C)N1CCC(NC(=O)c2ccc(OC3CCN(C(C)C)CC3)cc2F)CC1

Ki [1]: 10.5 nM
Structure (SMILES): CC(C)N1CCC(Oc2ccc(C(=O)NC3CCN(C4CCC4)CC3)c(F)c2)CC1

IC50 [2]: 274 nM | Ki [4]: 1 nM
Structure (SMILES): CC(C)N1CCC(NC(=O)c2ccc(OC3CCN(C4CCCC4)CC3)cc2)C1 (stereo not drawn)

Ki [1]: 7 nM
Structure (SMILES): CC(C)N1CCC(NC(=O)c2ccc(OC3CCN(C4CCC4)CC3)cc2Cl)CC1

Ki [1]: 1.6 nM
Structure (SMILES): CC(C)N1CCC(NC(=O)c2ccc(OC3CCN(C4CCC4)CC3)cc2)CC1

IC50 [2]: 324 nM | metabolised at 0.5 h [3]: 4% | Ki [4]: 0.9 nM | t1/2 [5]: 11.67 h | F [6]: 75% | AUCt [7]: 444 ng·h/mL | Cmax [8]: 122 ng/mL | metabolised at 0.5 h [9]: 12% | IC50 [11]: > 45000 nM | IC50 [12]: > 45000 nM
Structure (SMILES): CC(C)N1CCC(Oc2ccc(C(=O)NC3CCN(C(C)C)C3)cc2)CC1 (stereo not drawn)
inhibition at 1 µM [13]: 21%

Ki [1]: 103 nM
Structure (SMILES): CC(C)N1CCC(NC(=O)c2ccc(OC3CCOCC3)cc2)C1 (racemic)

Ki [1]: 9.2 nM
Structure (SMILES): Cc1cc(OC2CCN(C(C)C)CC2)ccc1C(=O)NC1CCN(C2CCC2)C1 (racemic)

Ki [1]: 8.3 nM
Structure (SMILES): CC(C)N1CCC(NC(=O)c2ccc(OC3CCN(C(C)C)CC3)cc2)CC1

Ki [1]: 1.2 nM
Structure (SMILES): CC(C)N1CCC(Oc2ccc3c(c2)CCN(C2CCN(C4CCC4)C2)C3=O)CC1 (racemic)

The remaining lines, values behind:

Structure (SMILES): O=C(NC1CCN(C2CCC2)CC1)c1ccc(OC2CCN(C3CCC3)CC2)cc1Cl
Ki [1]: 6.7 nM

Structure (SMILES): CC(C)CN1CCC(NC(=O)c2ccc(OC3CCN(C(C)C)CC3)cc2)C1 (stereo not drawn)
IC50 [2]: 459 nM | metabolised at 0.5 h [3]: 8% | Ki [4]: 1.2 nM | t1/2 [5]: 17.51 h | F [6]: 81% | AUCt [7]: 281 ng·h/mL | Cmax [8]: 18 ng/mL | metabolised at 0.5 h [9]: 18% | inhibition at 10 µM [10]: 35%

Structure (SMILES): CC(C)N1CCC(NC(=O)c2ccc(OC3CCN(C4CCCC4)CC3)cc2)C1 (racemic)
Ki [1]: 8.6 nM

Structure (SMILES): Cc1cc(C(=O)NC2CCN(C3CCC3)C2)ccc1OC1CCN(C(C)C)CC1 (racemic)
Ki [1]: 384 nM

Structure (SMILES): CC(C)N1CCC(Oc2ccc(C(=O)NC3CCN(C4CCC4)C3)c(F)c2)CC1 (racemic)
Ki [1]: 5.7 nM

Structure (SMILES): CC(C)CN1CCC(NC(=O)c2ccc(OC3CCN(C(C)C)CC3)cc2)C1 (racemic)
Ki [1]: 1 nM

Structure (SMILES): CC(C)N1CCC(Oc2ccc(C(=O)NC3CCN(C(C)C)C3)cc2)CC1 (racemic)
Ki [1]: 5.7 nM

Structure (SMILES): CC(C)N1CCC(Oc2ccc(C(=O)NC3CCN(C4CCC4)C3)cc2F)CC1 (racemic)
Ki [1]: 7.3 nM

Structure (SMILES): CC(C)N1CCC(Oc2ccc3c(c2)CCN(C2CCN(C4CCC4)CC2)C3=O)CC1
Ki [1]: 1.8 nM

Structure (SMILES): Cc1cc(C(=O)NC2CCN(C(C)C)C2)ccc1OC1CCN(C(C)C)CC1 (racemic)
Ki [1]: 1360 nM

Structure (SMILES): CC(C)N1CCC(NC(=O)c2ccc(OC3CCN(C4CCC4)CC3)cc2)C1 (racemic)
Ki [1]: 26.9 nM

Structure (SMILES): O=C1CCCN1c1ccc(Oc2ccc3c(c2)CCN(C2CCC2)CC3)nc1 [GSK239512]
Ki [4]: 10 nM

Structure (SMILES): O=C1c2ccc(OC3CCN(C4CCC4)CC3)cc2CCN1C1CCN(C2CCC2)CC1
concentration at 1 h [14]: 76.3 ng/mL | IC50 [2]: 4.8 nM | metabolised at 0.5 h [3]: 6% | Ki [4]: 0.03 nM | concentration at 1 h [15]: 3.7 ng/mL | Cmax [16]: 80 ng/mL | Kp [17]: 0.54 | concentration at 1 h [18]: 15.7 ng/mL | inhibition at 1 µM [13]: 23% | AUCt [19]: 1429 ng·h/mL | concentration at 1 h [20]: 28.5 ng/g | Vz [21]: 13 L/kg | metabolised at 0.5 h [9]: 10% | F [22]: 27% | concentration at 1 h [23]: 765 ng/g | Activity [24]: Dose-dependent effect | ED50 [24]: 15.5 mg/kg | concentration at 1 h [25]: 175 ng/g | Ki [1]: 0.8 nM | inhibition at 10 µM [10]: 26%

Structure (SMILES): CC(C)N1CCC(Oc2ccc(C(=O)NC3CCN(C4CCC4)C3)cc2)CC1 (racemic)
Ki [1]: 2.5 nM

Structure (SMILES): CC(C)N1CCC(Oc2ccc(C(=O)NC3CCN(C4CCC4)C3)c(Cl)c2)CC1 (racemic)
Ki [1]: 18.4 nM

Structure (SMILES): CC(C)N1CCC(Oc2ccc3c(c2)CCN(C2CCN(C(C)C)C2)C3=O)CC1 (stereo not drawn)
IC50 [2]: 14.3 nM | Ki [4]: 0.1 nM
